Results taken from US10124012B2, “Method for treatment of hyperglycemia and hyperlipidemia” (priority 2016, dated 2018).

What was measured:
[1] = test system: high-fat diet-fed C57BL/6J mouse; test: Body weight, tissue weights and food intake in HFD-fed mice; assay type: in vivo, C57BL/6J mice; conditions: HF + Feno: fenofibrate 250 mg/kg/day oral gavage 4 weeks
Description: (§1) The 4-week old male C57BL/6J mice (total amount n=63) were obtained from the National Laboratory Animal Center (Taipei, Taiwan). After acclimatization for one week, all of the mice were randomly assigned into a control (CON) group and a high-fat diet (HFD) group. […] After HFD feeding for 8 weeks, the HFD group was randomly subdivided into six groups (n=9 per group) receiving different treatments and fed on HFD. […] The HF+AnK1, HF+AnK2, and HF+AnK3 groups are collectively termed AnK-treated HFD groups in the following examples. The CON mice were administered vehicle. All treatments were administered via oral gavage once daily. After administration for 4 weeks, all mice were fasted 12 hours, and blood was collected from the retro-orbital sinus under ether anesthesia. At the end of the experiment, the mice were sacrificed via carbon dioxide inhalation. Liver, adipose tissue, and skeletal muscle were collected and immediately stored at −80° C. for target gene analysis.
The metabolic parameters, including body weight, weight gain, and food intake, were performed as the following. Body weight was daily measured at the same time throughout the study. Body weight gain is considered as the weight difference between two consecutive days. The amount of pellet food was weighted, followed by weighting the amount of remaining food after 24 hours. The difference between the two weights is defined as daily food intake.

[2] = test system: high-fat diet-fed C57BL/6J mouse; test: Hepatic lipids in HFD-fed mice; assay type: in vivo, C57BL/6J mice; conditions: HF + Feno: fenofibrate 250 mg/kg/day oral gavage 4 weeks
Procedure: as §1, with “Animal studies” for “The 4-week old male C57BL/6J mice (total amount n=63)”, “performed and approved under” for “obtained from”, “guidelines of the Institutional” for “National Laboratory”, “Care and Use Committee in Taiwan (12 Mar. 2015). […]” for “Center (Taipei, Taiwan).”, “group. For the following 12 weeks, the CON group (n=9) received a control diet or a low-fat diet (Diet 12450B, Research Diets, Inc., New Brunswick, N.J., USA), while the HFD group (n=54) received a high-fat diet (Diet 12451, Research Diets, New Brunswick, N.J., USA).” for “group.”

[3] = test system: high-fat diet-fed C57BL/6J mouse; test: Histopathology of epididymal white adipose tissue (adipocyte hypertrophy); assay type: in vivo, C57BL/6J mice; conditions: mean area of epididymal adipocyte; HF + Feno: fenofibrate 250 mg/kg/day oral gavage 4 weeks, HFD-fed mice
Procedure: (§2) Animal studies were performed and approved under the guidelines of the Institutional Animal Care and Use Committee in Taiwan (12 Mar. 2015). The 4-week old male C57BL/6J mice (total amount n=63) were obtained from the National Laboratory Animal Center (Taipei, Taiwan). After acclimatization for one week, all of the mice were randomly assigned into a control (CON) group and a high-fat diet (HFD) group. For the following 12 weeks, the CON group (n=9) received a control diet or a low-fat diet (Diet 12450B, Research Diets, Inc., New Brunswick, N.J., USA), while the HFD group (n=54) received a high-fat diet (Diet 12451, Research Diets, New Brunswick, N.J., USA). The low-fat diet was composed of protein 20%, carbohydrate 70% and fat 10%, whereas the high-fat diet was composed of protein 20%, carbohydrate 35%, and fat 45% (of total energy, % kcal). After HFD feeding for 8 weeks, the HFD group was randomly subdivided into six groups (n=9 per group) receiving different treatments and fed on HFD. […] The HF+AnK1, HF+AnK2, and HF+AnK3 groups are collectively termed AnK-treated HFD groups in the following examples. The CON mice were administered vehicle. All treatments were administered via oral gavage once daily. After administration for 4 weeks, all mice were fasted 12 hours, and blood was collected from the retro-orbital sinus under ether anesthesia. At the end of the experiment, the mice were sacrificed via carbon dioxide inhalation. Liver, adipose tissue, and skeletal muscle were collected and immediately stored at −80° C. for target gene analysis.
(§3) Parts of visceral adipose and liver specimens were fixed with formalin (200 g/kg) neutral buffered solution and embedded in paraffin. A series of 8 μm-thick sections was cut and stained with hematoxylin and eosin. For microscopic examination, a microscope (Olympus BX51, Olympus, Tokyo, Japan) was used and the images were photographed.
Adipocyte hypertrophy, the pathological enlargement of adipocytes, is often found in subjects with type 2 diabetes and hyperlipidemia. To verify the therapeutic effect of AnK on adipocyte hypertrophy, morphology of the epididymal white adipose tissue from mice of the HF group and the AnK-treated HFD groups was examined. Micrographs (magnification 200X) of the EWAT sections for each group were shown in FIG. 4 and analyzed to determine the mean area of an epididymal adipocyte.

[4] = test system: high-fat diet-fed C57BL/6J mouse; test: Histopathology of liver (hepatocellular ballooning); assay type: in vivo, C57BL/6J mice; conditions: grade 0 absence, 1 few cells, 2 many cells (Table 4); HF + Feno: fenofibrate 250 mg/kg/day oral gavage 4 weeks, HFD-fed mice
Procedure: as §2, §3
On the basis of previous study, the degree of hepatocellular ballooning is defined in TABLE 4: […]

membrane GLUT4 [5] = test: Western blotting of skeletal muscular membrane GLUT4 in HFD-fed mice; assay type: in vivo, C57BL/6J mice; conditions: skeletal muscle, AnK 10, 20, 40, Feno 250, Metf 300 mg/kg/day, as compared with the HF group
Description: as §1
About 0.1 g of liver tissue, skeletal muscle, or adipose tissue was used for the homogenate samples. Samples were powdered under liquid nitrogen and homogenized for 20 seconds in 500 μL buffer containing 20 mM Tris-HCl (pH 7.4 at 4° C.), 2% SDS, 5 mM EDTA, 5 mM EGTA, 1 mM dithiothreitol (DTT), 100 mM NaF, 2 mM sodium vanadate, 0.5 mM phenylmethylsulfonyl fluoride, 10 μg/mL leupeptin, and 10 μL/mL pepstatin. The total membrane fraction was used for measurement. The protein concentration in supernatant was determined with a BCA protein assay kit (Thermo Scientific, Rockford, Ill., USA). […] The membrane was blocked with 5% slim milk in Tris-buffered saline (TBS)(Amersham BioSciences, Uppsala, Sweden) containing 0.05% Tween-20 (Bio Rad, CA, USA) and incubated overnight at 4° C. with antibodies at 1:200 dilution. […] Immunoreactive bands were detected with ECL reagent kit (GE Healthcare BioSciences, Buckinghamshire, UK). The intensity of Western blot signals was analyzed using AlphaEase FC software (Alpha Innotech Corporation, Randburg, South Africa). […]

membrane GLUT4 [6] = test: Membrane GLUT4 expression in C2C12 cells (Western blotting); assay type: cell-based; conditions: AnK 1, 5, 10 and 25 μg/mL 30 min, insulin 100 nM 25 min, vs CON group
Procedure: (§4) For the in vitro assay, C2C12 skeletal myoblasts (ATCC CRL-1772) were cultured at 37° C. in Dulbecco's modified Eagle's medium (DMEM; Gibco BRL) supplemented with 10% fetal bovine serum (FBS; Hyclone) and 100 U/ml penicillin and 100 μg/ml streptomycin (Gibco BRL), and split 1:4 using 0.05% trypsin at 80% confluency. Myoblasts were diluted and placed in a 9 cm dish. Cells were cultured to achieve 80-90% confluency and refreshed with […] (2% FBS/DMEM) every 24 hours for 5-7 days. The term “confluency” refers to the proportion of the surface of a culture dish that is covered by adherent cells growing in the dish. 100% confluency refers to complete coverage of the surface by the cells.
(§5) Differentiated C2C12 cells were serum-starved in DMEM/BSA at 37° C. for 2 hours prior to incubation with AnK (at 1, 5, 10, and 25 μg/mL) or vehicle (0.2% dimethyl sulfoxide (DMSO) in saline) for 30 min or with 100 nM insulin for 25 min.
The C2C12 cells of the other group were homogenized in a homogenization buffer having a pH value of about 7.4 and containing 250 mM sucrose, 50 mM Tris, and 0.2 mM edetic acid (EDTA). […]
(§6) Protein concentrations were determined via BCA assay (Pierce). […]
(§7) SDS polyacrylamide gel electrophoresis (SDS-PAGE) and Western blotting. Proteins were detected with antibodies specific for GLUT4, Akt, phospho-Akt (Ser^473), AMPK, and phospho-AMPK (Thr^172).

[7] = test system: phospho-Akt (Ser^473)/total-Akt; test: Akt phosphorylation in C2C12 cells (Western blotting); assay type: cell-based; conditions: AnK 1, 5, 10 and 25 μg/mL 30 min, insulin 100 nM 25 min, vs CON group
Procedure: as §4, §5
(§8) The abovementioned C2C12 cells were then washed three times with phosphate buffered saline (PBS) and divided into two groups. […]
as §6, §7

[8] = test system: phospho-AMPK (Thr^172)/total-AMPK; test: AMPK phosphorylation in C2C12 cells (Western blotting); assay type: cell-based; conditions: AnK 1, 5, 10 and 25 μg/mL 30 min, insulin 100 nM 25 min, vs CON group
Procedure: as §4, §5, §8, §6, §7

Row | Compound | Absolute tissue weight BAT [1] [g] | Absolute tissue weight EWAT [1] [g] | Absolute tissue weight Liver [1] [g] | Absolute tissue weight MWAT [1] [g] | Absolute tissue weight RWAT [1] [g] | Absolute tissue weight Skeletal muscle [1] [g] | Absolute tissue weight Spleen [1] [g] | Final body weight [1] [g] | Weight gain [1] [g] | Absolute tissue weight Visceral fat ([1]; sum of EWAT and RWAT) [g] | Liver lipids total lipid [2] [mg/g] | Liver lipids triacylglycerol [2] [µmol/g] | Adipocyte size [3] [μm^2] | Hepatocellular ballooning Mean score [4] | increase of membrane GLUT4 levels (membrane GLUT4 [5]) [fold] | protein expression of membrane GLUT4 (membrane GLUT4 [6]) | expression ratio of phospho-Akt (p-Akt) to total-Akt (t-Akt) [7] | expression ratio of phospho-AMPK (p-AMPK) to total-AMPK (t-AMPK) [8]
1 | CC(C)OC(=O)C(C)(C)Oc1ccc(C(=O)c2ccc(Cl)cc2)cc1 [Feno, fenofibrate, reference compound] | 0.157 ± 0.013 | 0.603 ± 0.041 | 1.700 ± 0.070 | 0.247 ± 0.025 | 0.181 ± 0.020 | 0.428 ± 0.026 | 0.084 ± 0.005 | 27.55 ± 0.84 | 0.57 ± 0.55 | 0.784 ± 0.052 | 64.9 ± 5.1 | 47.3 ± 4.6 | 6304.2 ± 316.9 | 0.5 ± 0.1 | 1.98 | – | – | –
2 | insulin [reference compound] | – | – | – | – | – | – | – | – | – | – | – | – | – | – | – | enhanced | higher | higher
